Measurements as given in patent US20200165194A1, “ADDITIVE COMPOSITION FOR CULTURE MEDIUM, ADDITIVE COMPOUND FOR CULTURE MEDIUM, AND METHOD FOR CULTURE OF CELLS OR TISSUE USING SAME” (NISSAN CHEMICAL CORPORATION, priority 2017, published 2020).

Tests used:
Assay type in all cases: cell-based
[1] = test system: plural animal cell lines; assay: Animal cell lines, summary over the cell lines (Experimental Example 15); details: animal cell lines under three-dimensional conditions
Source text: (§1) Various animal cell lines were precultured (single layer culture) as follows in respective media. Chinese hamster ovary-derived cell line CHO-K1 (manufactured by DS PHARMA BIO MEDICAL, 10% fetal bovine serum (FBS, manufactured by Corning)-containing Ham's F-12 medium (manufactured by Fujifilm Wako Pure Chemical Corporation)), Cercopithecus aethiops kidney epithelium-derived cell line Vero (purchased from JCRB cell bank, 5% FBS-containing Medium 199 medium (manufactured by Life Technologies)). The above-mentioned cells in the logarithmic growth phase were washed with PBS, a 0.25 w/v % trypsin-1 mmol/L EDTA (ethylenediaminetetraacetic acid) solution (manufactured by Fujifilm Wako Pure Chemical Corporation) was added, and adherent cells were detached by incubating at 37° C. for 3 min. Each medium was added and the mixture was centrifuged and resuspended in the same medium.
(§2) The aforementioned various animal cells were suspended in respective deacylated gellan gum-containing or not containing media (deacylated gellan gum concentration was 0.02 w/v % in Ham's F-12 medium, 0.015 w/v % in Medium 199 medium), and seeded in a 96 well low attachment U-bottom plate (manufactured by Corning, #4520, deacylated gellan gum-free medium), or a low attachment flat bottom plate (manufactured by Corning, #3474, deacylated gellan gum-containing medium) at a cell concentration of 700-2000 cells/90 μL/well (all 3D culture). […] The amount of each compound solution to be added was […]. As a control, a DMSO solution dissolved in a medium was added (DMSO final concentration 0.1%). […] When compared with the compound non-addition (control), one showing a value of not more than 119% as -, one showing a value of not less than 120% as ◯, and one showing a value of not less than 150% as ⊚ are shown in the twenty-third table and the twenty-fourth table.

[2] = test system: SKOV3 cells (human ovarian cancer-derived cell line); assay: Cell proliferation activity in three-dimensional medium FCeM, ATP assay (Experimental Example 1); details: SKOV3, 3D medium FCeM, compound 5 μM, 4 days; DMSO control = 100%; average of two tests
Protocol: A cell proliferation promoting effect when the compound to be used in the present invention was added to a three-dimensional medium was studied. Specifically, precultured (adhesion cultured) SKOV3 cells (human ovarian cancer-derived cell line) were recovered and suspended in a three-dimensional cell culture medium (“FCeM (registered trade mark)” (Nissan chemical corporation)) to prepare a cell suspension. […] The cell suspension seeded in the plate was stood overnight at 37° C., 5% CO2. Then, a DMSO diluted solution (4.44 μL) of the compound to be used in the present invention was added at a final concentration of 5 μM (or two steps of […] and 10 μM) (no stirring after addition). After addition of each compound, the mixtures were stood for 4 days at 37° C., 5% CO2. […] The luminescence intensity (RLU value) was measured by FlexStation3 (manufactured by Molecular Devices), and cell proliferation was evaluated.
The proliferation rate was calculated based on the control (cells added with DMSO without containing the compound to be used in the present invention) as the standard (100%). The values shown in the tables are average values of the results of two tests.

[3] = test system: Chinese hamster ovary-derived cell line CHO-K1; assay: Animal cell lines, 3D culture, ATP assay (Experimental Example 15); details: CHO-K1; low attachment flat bottom plate (deacylated gellan gum-containing medium); 5 μM; 4 days
Source text: as §1, §2

[4] = test system: Cercopithecus aethiops kidney epithelium-derived cell line Vero; assay: as above; details: 4 days
Source text: as §1, §2

[5] = test system: hiPS cell line 253G1; assay: Human pluripotent stem cell (hiPS cell), EZSPHERE plate, ATP assay (Experimental Example 13)
Protocol: hiPS cell line 253G1 (purchased from RIKEN) was cultured on a dish coated with vitronectin VTN-N (manufactured by Thermo Fisher Scientific) using mTeSR1 (registered trade mark) medium (manufactured by STEMCELL Technologies). The above-mentioned cells in the proliferation phase were washed with PBS (manufactured by Fujifilm Corporation Wako Pure Chemical Industries, Ltd.), TrypLE Select (registered trade mark) (manufactured by Thermo Fisher Scientific) was added and the mixture was incubated at 37° C. for 3 min to remove the detaching solution. The medium was added and the cells were detached by pipetting. Thereafter, the supernatant was removed by centrifugation.
The aforementioned cells were suspended in a medium containing 10 μM Y-27632 (manufactured by Fujifilm Corporation Wako Pure Chemical Industries, Ltd.) and seeded in a 96-well EZSPHERE plate (manufactured by AGC TECHNO GLASS CO., LTD., #4860-900) at a cell concentration of 10000 cells/200 μL/well. […] The amount of each compound solution to be added was 2 μL/well. As a control, a DMSO solution dissolved in a medium was added (DMSO final concentration 0.05%). The medium was exchanged by half the volume every day, and each compound solution was also added to make the compound concentration constant.

[6] = test system: human epithelial-like cell cancer-derived cell line A431; assay: Cells cultured by hanging drop method, ATP assay (Experimental Example 12)
Protocol: (§3) Human epithelial-like cell cancer-derived cell line A431 (manufactured by ATCC) was cultured using 10% FBS and 1% MEM non-essential amino acid solution (MEM NEAA, manufactured by Wako Pure Chemical Industries, Ltd.)-containing EMEM (manufactured by Wako Pure Chemical Industries, Ltd.)). In addition, bone marrow-derived human mesenchymal stem cells (BM-hMSC, manufactured by PromoCell) were cultured using a mesenchymal stem cell proliferation medium (manufactured by PromoCell). Each of the above-mentioned cells in the logarithmic growth phase was washed with PBS, a 0.25 w/v % trypsin-1 mmol/L EDTA (ethylenediaminetetraacetic acid) solution (manufactured by Wako Pure Chemical Industries, Ltd.) was added, and the cells were detached by incubating at 37° C. for 3 min. Each medium was added, the mixture was centrifuged, and the supernatant was removed.
(§4) The cell suspension was seeded by 10 μL in 15 drops on the back surface of the lid of a 3.5 cm dish (manufactured by Falcon, #351008) to form droplets. At this time, as a control, a medium supplemented with DMSO (final concentration of DMSO: 0.05%) was seeded by 10 μL in 15 drops. The lid was returned to a 3.5 cm dish added with 2 mL of PBS, and cultured for 2 days in an incubator at 37° C., 5% CO2. The cultured droplets were collected in a 1.5 mL tube, and the medium was added to a final volume of 150 μL.

[7] = test system: Bone marrow-derived human mesenchymal stem cells (BM-hMSC); assay: as above
Protocol: as §3, §4

[8] = test system: Human umbilical vein endothelial cells; assay: Vascular endothelial cell, 3D culture, ATP assay (Experimental Example 14)
Protocol: Human umbilical vein endothelial cells (manufactured by PromoCell) were precultured in Endothelial Cell proliferation Medium (manufactured by PromoCell) medium (single layer culture). The above-mentioned cells in the logarithmic growth phase were washed with PBS, DetachKit (manufactured by PromoCell) was added, and adherent cells were detached by incubating at 37° C. for 3 min. The medium was added and the mixture was centrifuged and resuspended in the same medium.
The aforementioned cells were suspended in respective deacylated gellan gum-containing or not containing media (deacylated gellan gum concentration was 0.015 w/v %), and seeded in a 96 well low attachment U-bottom plate (manufactured by Corning, #4520, deacylated gellan gum-free medium), or a low attachment flat bottom plate (manufactured by Corning, #3474, deacylated gellan gum-containing medium) at a cell concentration of 700-2000 cells/90 μL/well (all 3D culture). […] The amount of each compound solution to be added was 10 μL/well. As a control, a DMSO solution dissolved in a medium was added (DMSO final concentration 0.1%).

Which “proliferation activity (in words)” value [1] does the source give for `CCC(=NNC(=O)CNc1ccccc1)c1ccc(O)c(C)c1O` [k-1:H-1] here?
The value was “promoted proliferation activity in plural animal cell lines”.

And the “proliferation rate (%)” value [2]?
Its value is 233.26%.

What about the “number of viable cells (RLU), relative value to control (100%)” value (from here on “number … relative value to control (100%)”) [3] of the same compound?
The value was “◯ (one showing a value of not less than 120% as ◯)”.

And the “number … relative value to control (100%)” value ([4]; low attachment U-bottom plate, 5 μM)?
Its value is “⊙”.

And the “number … relative value to control (100%)” value ([4]; low attachment U-bottom plate, 10 μM)?
Its value is “⊙”.

What about the “number … relative value to control (100%)” value ([4]; low attachment flat bottom plate (deacylated gellan gum-containing medium), 5 μM) of the same compound?
The value was “⊙”.

What about the “number … relative value to control (100%)” value ([4]; low attachment flat bottom plate (deacylated gellan gum-containing medium), 10 μM) of the same compound?
The value was “⊙”.

What about the “relative value (%)” value ([5]; hiPS 253G1, EZSPHERE plate, 5 μM, 3 days, RLU of DMSO addition = 100%) of the same compound?
Its value is 166%.

And the “proliferation activity (in words)” value ([5]; human pluripotent stem cells under three-dimensional conditions)?
The value was “promoted proliferation activity in human pluripotent stem cells”.

And the “cell number (in words)” value ([6]; A431 cell line, three-dimensional cell culture by the hanging drop method)?
The value was “showed an effect of increasing the number”.

And the “cell number (relative value)” value ([6]; A431 cell, hanging drop, 5 μM, 2 days, control = 100%)?
The value was 252%.

What about the “cell number (relative value)” value ([7]; BM-hMSC, hanging drop, 5 μM, 2 days, control = 100%) of the same compound?
The value was 186%.

What about the “cell number (in words)” value ([7]; bone marrow-derived human mesenchymal stem cells, hanging drop method) of the same compound?
Its value is “showed an effect of increasing the number”.

What about the “relative value of RLU (number of viable cells)” value ([8]; HUVEC, low attachment U-bottom plate, 5 μM, 4 days, no-addition = 100%) of the same compound?
The value was 820%.

What about the “proliferation activity (in words)” value ([8]; human umbilical vein endothelial cells under three-dimensional conditions) of the same compound?
Its value is “promoted proliferation activity in human umbilical vein endothelial cells”.
